Measured values from PMC12655529, “Serendipitous Hinge Modulation Hypothetically Reprograms Caerin 1.1-LC Antibacterial Mechanism and Gram-Negative Selectivity” (Pharmaceutics, 2025).
Converted amounts (≈) assume the structure as drawn. Like-named read-outs stand apart in the source and are kept apart here. Square brackets hold non-standard residues; d marks the D form. Ends that are not written are not given here. Peptide text beside a SMILES is read from it.

How the values were obtained:
[1] = system: TNF-α secretion of LPS-stimulated RAW 264.7 cells; assay: LPS neutralisation assay (TNF-α ELISA); assay type: cell-based, murine; conditions: RAW 264.7, 100 ng/mL LPS, 24 h, peptide and hydrocortisone at the same concentration (hydrocortisone 10 μg/mL), LPS alone approximately 100 ng/mL
Description: Murine macrophage RAW 264.7 cells were cultured in 6-well plates at a density of 5 × 10^5 cells per well and allowed to adhere for 24 h at 37 °C in a 5% CO2 humidified incubator. Cells were then stimulated with 100 ng/mL LPS in the presence or absence of test peptides at varying concentrations (typically 1–100 μM). Hydrocortisone (10 μg/mL) served as the positive control for anti-inflammatory activity. After 24 h of incubation, cell culture supernatants were collected and centrifuged at 300× g for 10 min to remove cellular debris. Tumour necrosis factor-alpha (TNF-α) secretion was quantified using a mouse TNF-α ELISA Development Kit (ThermoFisher Scientific, Waltham, MA, USA) according to the manufacturer’s protocol.

[2] = system: Pseudomonas aeruginosa ATCC 9027; assay type: cell-based
[3] = system: Enterococcus faecalis NCTC 12697; assay type: cell-based
Description: (§2) The antimicrobial activities of the peptides were evaluated by determining their minimal inhibitory concentration (MIC) and minimal bactericidal concentration (MBC) values following reported protocols [20]. The tested microorganisms included seven Gram-negative bacterial strains (Escherichia coli ATCC 8739, E. coli ATCC-BAA 2340, E. coli NCTC 13846, Klebsiella pneumoniae ATCC 43816, K. pneumoniae ATCC BAA-2342, Pseudomonas aeruginosa ATCC 9027, Acinetobacter baumannii ATCC BAA-747), three Gram-positive bacterial strains (Staphylococcus aureus ATCC 6538, Enterococcus faecalis NCTC 12697, MRSA NCTC 12493, and the fungal strain Candida albicans ATCC 10231. For the assay, each bacterial strain was cultured overnight at 37 °C in 100 mL of medium in a flask. The cultures were then subcultured to reach the logarithmic growth phase and diluted to 5 × 10^5 CFU/mL. Peptide samples were serially diluted two-fold in microplates, with concentrations ranging from 128 μM to 1 μM. The diluted bacterial suspensions were mixed with the peptide solutions and incubated overnight at 37 °C. The MIC values were determined by measuring the absorbance of each well using a Synergy HT plate reader (Agilent, Cheshire, UK). For MBC determination, aliquots from wells showing no visible growth were inoculated onto agar plates to assess bacterial viability. Each experiment was repeated independently three times and conducted in three independent replicates.

[4] = system: Acinetobacter baumannii ATCC BAA-747; assay type: cell-based
Description: as §2

E. coli (ATCC-BAA 2340) = assay type: cell-based, Escherichia coli
Description: The peptide sensitivity was determined in different salt- and serum-containing environments. Bacterial strains were prepared following the MIC detection protocol described previously. To evaluate peptide sensitivity under physiological conditions, various concentrations of salt ions (150 mM NaCl, 4.5 mM KCl, 2 mM CaCl2, 1 mM MgCl2, 8 µM ZnCl2, 6 µM NH4Cl, or 4 µM FeCl3) and serum (10% FBS) were prepared in McCartney bottles prior to the addition of bacterial suspensions. The subcultured bacterial suspensions were then introduced to these modified media conditions. For MIC determination, the treated bacterial suspensions were diluted and dispensed into 96-well plates containing peptide solutions at graded concentrations. This assay allowed for the detection of potential alterations in MIC values, serving as an indicator of peptide sensitivity under different physiological conditions. All experiments were independently repeated three times, each with three replicates.

[5] = system: Klebsiella pneumoniae ATCC 43816; assay type: cell-based
E. coli ATCC BAA-2340 = assay type: cell-based, Escherichia coli
Description: as §2

[6] = system: Staphylococcus aureus ATCC 6538; assay type: cell-based
Description: as §2

[7] = system: K. pneumoniae ATCC BAA-2342; assay type: cell-based, Klebsiella pneumoniae
Description: as §2

[8] = system: Escherichia coli ATCC 8739; assay type: cell-based
Description: as §2

horse red blood cells = assay: Haemolysis assay; assay type: cell-based; conditions: concentration inducing 10% haemolysis of horse erythrocytes; 4% (v/v) in PBS, 2 h, 37 °C, absorbance 570 nm; no haemolysis at maximum testing concentration (128 μM) recorded as 256 μM
Description: The peptide cytotoxicity against mammalian erythrocytes was evaluated by haemolysis assay on horse red blood cells (E&O Laboratories Ltd., Falkirk, UK). Fresh horse blood was washed three times with PBS and resuspended to a final concentration of 4% (v/v) in PBS. The diluted blood suspension was then mixed with peptide solutions at varying concentrations and incubated for 2 h at 37 °C. Red blood cell suspensions treated with 0.1% Triton X-100 and PBS were used as controls. The Triton X-100-treated suspension was the positive control (for 100% haemolysis), while the PBS-treated suspension was the blank control. Following incubation, the mixtures were centrifuged at 1000× g for 10 min to separate erythrocytes from the supernatant. The absorbance of the supernatants was detected at 570 nm. The percentage haemolysis was calculated by following the equationPercentage Haemolysis = (AbsSample − AbsBlank)/(AbsPositive − AbsBlank) × 100%

[9] = system: MRC-5 human embryonic lung fibroblasts; assay type: cell-based; conditions: 24 h
Description: (§1) The peptide’s cytotoxicity against normal cell lines was detected by the MTT assay. Following resuscitation from cryopreservation (−80 °C), the cell line underwent multiple passages to ensure viability and adaptation. Cells were then seeded into 96-well plates and maintained at 37 °C in a 5% CO2 humidified atmosphere for 24 h to achieve proper adherence. After incubation, cells were serum-starved for 4 h using foetal bovine serum (FBS)-free medium (ThermoFisher, Waltham, MA, USA) to synchronise cell cycle progression. Peptide solutions were prepared at concentrations ranging from 128 μM to 1 μM (serial two-fold dilutions) and applied to the cells. Following peptide treatment, 10 μL of MTT (3-(4,5-dimethylthiazol-2-yl)-2,5-diphenyltetrazolium bromide) solution (5 mg/mL in PBS) was added to each well and incubated for 2 h at 37 °C. The medium was then carefully aspirated, and 100 μL of DMSO was added to dissolve the formazan crystals. Absorbance was measured at 570 nm using a microplate reader (Agilent, Cheshire, UK), with a reference wavelength of 630 nm to account for background interference. Experiments were conducted in triplicate and repeated three independent times.

[10] = system: HEK 293 human embryonic kidney cells; assay type: cell-based
Description: as §1

[11] = system: HaCaT human keratinocytes; assay type: cell-based; conditions: 24 h
Description: as §1

[12] = system: RAW 264.7 murine macrophages; assay type: cell-based; conditions: 24 h
Description: as §1

[13] = system: HMEC-1 human microvascular endothelial cells; assay type: cell-based; conditions: 24 h
Description: as §1

[14] = system: Galleria mellonella larvae; assay: In vivo toxicity in larvae; conditions: uninfected G. mellonella larvae, injection at 1×, 2×, 4× MIC, n = 10 per group, observed five days
Gram-positive bacteria = assay: Geometric mean MIC and therapeutic index, Gram-positive; assay type: cell-based; conditions: geometric mean of MICs
MRSA NCTC 12493 = assay type: cell-based, Staphylococcus aureus
Description: as §2

E. coli NCTC 13846 = assay type: cell-based, Escherichia coli
Description: as §2

Gram-negative bacteria = assay: Geometric mean MIC and therapeutic index, Gram-negative; assay type: cell-based; conditions: geometric mean of MICs
[15] = first value of MIC/MBC cell, 5 × 10^5 CFU/mL, overnight 37 °C, absorbance
[16] = second value of MIC/MBC cell, agar plating

| Molecule | MBC, P. aeruginosa (ATCC 9027) [2] | MIC, P. aeruginosa (ATCC 9027) [2] | MIC, FBS (E. coli (ATCC-BAA 2340); ATCC-BAA 2340) [µM] | MIC, Fe^3+ (E. coli (ATCC-BAA 2340); ATCC-BAA 2340) [µM] | MIC, K^+ (E. coli (ATCC-BAA 2340); ATCC-BAA 2340) [µM] | MIC, Mg^2+ (E. coli (ATCC-BAA 2340); ATCC-BAA 2340) [µM] | MIC, NH4^+ (E. coli (ATCC-BAA 2340); ATCC-BAA 2340) [µM] | MIC, Na^+ (E. coli (ATCC-BAA 2340); ATCC-BAA 2340) [µM] | MBC, E. coli (ATCC BAA-2340) (E. coli ATCC BAA-2340) [µM] | MIC, E. coli (ATCC BAA-2340) (E. coli ATCC BAA-2340) [µM] | MBC, K. pneumoniae (ATCC BAA-2342) [7] [µM] | MIC, K. pneumoniae (ATCC BAA-2342) [7] [µM] | MBC, E. coli (ATCC 8739) ([8]; ATCC 8739) [µM] | HC10 (horse red blood cells) [µM] | GM MIC Gram-Positive (Gram-positive bacteria) [µM] | MBC, MRSA (NCTC 12493) (MRSA NCTC 12493) [µM] | MIC, MRSA (NCTC 12493) (MRSA NCTC 12493) [µM] | MBC, E. coli (NCTC 13846) (E. coli NCTC 13846) [µM] | MIC, E. coli (NCTC 13846) (E. coli NCTC 13846) [µM] | also measured |
| --- | --- | --- | --- | --- | --- | --- | --- | --- | --- | --- | --- | --- | --- | --- | --- | --- | --- | --- | --- | --- |
| C[C@]12CCC(=O)C=C1CC[C@@H]1[C@@H]2[C@@H](O)C[C@@]2(C)[C@H]1CC[C@]2(O)C(=O)CO [hydrocortisone] |  |  |  |  |  |  |  |  |  |  |  |  |  |  |  |  |  |  |  | TNF-α level after LPS stimulation [1]: approximately 22.3 ng/mL |
| GLLSVLGSLKLIVPHVVPLIAEKL-NH2 [Caerin 1.1-LC] | 128 µM | 64 µM | 32 | 16 | 16 | 32 | 16 | 16 | 16 | 8 | 64 | 16 | 64 | 37.5 | 14.25 | 128 | 32 | 32 | 4 | MBC, E. faecalis (NCTC 12697) ([3]; NCTC 12697): >128 µM; MIC, E. faecalis (NCTC 12697) ([3]; NCTC 12697): >128 µM; MBC, A. baumannii (ATCC BAA-747) ([4]; ATCC BAA-747): 128 µM; MIC, A. baumannii (ATCC BAA-747) ([4]; ATCC BAA-747): 16 µM; MIC, Ca^2+ (E. coli (ATCC-BAA 2340); ATCC-BAA 2340): 64 µM; MBC, K. pneumoniae (ATCC 43816) ([5]; ATCC 43816): 64 µM; MIC, K. pneumoniae (ATCC 43816) ([5]; ATCC 43816): 16 µM; MBC, S. aureus (ATCC 6538) ([6]; ATCC 6538): 128 µM; MIC, S. aureus (ATCC 6538) ([6]; ATCC 6538): 64 µM; MIC, E. coli (ATCC 8739) ([8]; ATCC 8739): 16 µM; IC50 [9]: 14.8 µM; IC50 ([10]; 24 h): 10.8 µM; IC50 [11]: 61.2 µM; IC50 [12]: 6 µM; IC50 [13]: 79.3 µM; toxicity to larvae (mortality) [14]: complete mortality by day four or five post-injection |
| CC[C@H](C)[C@H](NC(=O)[C@H](CCCCN)NC(=O)[C@@H]1CCCN1C(=O)[C@H](NC(=O)[C@H](NC(=O)[C@H](Cc1c[nH]cn1)NC(=O)[C@@H]1CCCN1C(=O)[C@@H](NC(=O)[C@@H](NC(=O)[C@H](CCCCN)NC(=O)[C@H](CCCCN)NC(=O)[C@H](CC(C)C)NC(=O)[C@H](CO)NC(=O)[C@H](CCCCN)NC(=O)[C@H](CC(C)C)NC(=O)[C@@H](NC(=O)[C@H](CO)NC(=O)[C@H](CC(C)C)NC(=O)[C@H](CC(C)C)NC(=O)CN)C(C)C)[C@@H](C)CC)C(C)C)C(C)C)C(C)C)C(=O)N[C@@H](C)C(=O)N[C@@H](CCC(=O)O)C(=O)N[C@@H](CCCCN)C(=O)N[C@@H](CC(C)C)C(N)=O [Caerin 1.1-LC 7.11.19K.V(D)V(D)] (H-GLLSVLKSLKKIVPH[dV][dV]PKIAEKL-NH2) | 4/4 µM | 4/4 µM | 16 (≈ 41.7 µg/mL) | 4 (≈ 10.4 µg/mL) | 4 (≈ 10.4 µg/mL) | 32 (≈ 83.5 µg/mL) | 4 (≈ 10.4 µg/mL) | 16 (≈ 41.7 µg/mL) | 4 (≈ 10.4 µg/mL) | 4 (≈ 10.4 µg/mL) | 32 (≈ 83.5 µg/mL) | 16 (≈ 41.7 µg/mL) | 4 (≈ 10.4 µg/mL) | 256 | 128 | 64 (≈ 167 µg/mL) | 64 (≈ 167 µg/mL) | 8 (≈ 20.9 µg/mL) | 8 (≈ 20.9 µg/mL) | MIC, E. faecalis (NCTC 12697) [3, 15]: >128 µM; MBC, E. faecalis (NCTC 12697) [3, 16]: >128 µM; MIC, A. baumannii (ATCC BAA-747) [4, 15]: 32 µM (≈ 83.5 µg/mL); MBC, A. baumannii (ATCC BAA-747) [4, 16]: 128 µM (≈ 334 µg/mL); MIC, Control (E. coli (ATCC-BAA 2340); ATCC-BAA 2340): 4 µM (≈ 10.4 µg/mL); MIC, Ca^2+ (E. coli (ATCC-BAA 2340); E. coli (ATCC-BAA 2340), medium with 2 mM CaCl2): 128 µM (≈ 334 µg/mL); MIC, K. pneumoniae (ATCC 43816) [5, 15]: 64 µM (≈ 167 µg/mL); MBC, K. pneumoniae (ATCC 43816) [5, 16]: 128 µM (≈ 334 µg/mL); MIC, S. aureus (ATCC 6538) [6, 15]: 128 µM (≈ 334 µg/mL); MBC, S. aureus (ATCC 6538) [6, 16]: 128 µM (≈ 334 µg/mL); MIC, E. coli (ATCC 8739) ([8]; first value of MIC/MBC cell, 5 × 10^5 CFU/mL, peptide 128 to 1 μM two-fold, overnight 37 °C, absorbance, repeated three times): 2 µM (≈ 5.22 µg/mL); IC50 ([10]; MTT, peptide 128 to 1 μM, absorbance 570 nm, triplicate, three independent repeats, NI = no inhibition activity, read-out: IC50, HEK 293): 130 µM; GM MIC Gram-Negative (Gram-negative bacteria): 9.75 µM |
